Laboratory results: patent US8541585B2, “N-acyl cyclic amine derivative or pharmaceutically acceptable salt thereof” (Dainippon Sumitomo Pharma Co., Ltd., priority 2010, dated 2013)

Legend:
[1] = molecular target: human D2L receptor (Homo sapiens, UniProt P14416); experiment: Dopamine D2L receptor binding assay ([3H]-spiperone); conditions: 10 nM test drug; [3H]-spiperone 0.5 nM; human D2L receptor-expressing CHO cell membrane; read-out: BINDING INHIBITION RATE (%) D2L 10 nM
Procedure: (1) Dopamine D2L Receptor Binding Assay
D2L receptor binding assay was performed in reference to a method described by Hirose et al. (Japan. J. Pharmacol., 53, 321-329, 1990). After a reaction in a total volume of 200 μL of 50 mM Tris-HCl (pH=7.6) buffer solution containing 50 μL of [^3H]-spiperone (final concentration 0.5 nM), 1 μL of test drug in DMSO, and 149 μL of human D2L receptor-expressing CHO cell membrane sample, human D2L receptor binding activity of [^3H]-spiperone was measured. The reaction solution let stand for 60 minutes at room temperature, and then it was quickly added on a glass fiber filter plate (Multiscreen FB, Millipore inc.) coated with 0.3% polyethyleneimine (PEI) and filtered under reduced pressure. The glass fiber filter was washed with 200 μL of ice-cooled 50 mM Tris-HCl (pH=7.6) twice, repeatedly filtered under reduced pressure, and then transferred to a vial containing 4 mL of Ecoscint A (National Diagnostics inc.). The residual radioactivity on the glass fiber filter was measured by a liquid scintillation counter. Nonspecific binding was measured in the presence of 10 μM of spiperone, and [^3H]-spiperone binding inhibition rate in the presence of 10 nM of test drug was determined. The larger binding inhibition rate (%) means that test drug has the higher binding affinity for human D2L receptor.

[2] = molecular target: T1, human 5-HT2A receptor (Homo sapiens, UniProt P28223); experiment: Serotonin 5-HT2A receptor binding assay ([3H]-ketanserin); conditions: [3H]-ketanserin 1 nM, human 5-HT2A receptor-expressing CHO cell membrane; for inhibition at 0.001 µM: 1 nM test drug, read-out: BINDING INHIBITION RATE (%) 5HT2A 1 nM; for inhibition at 0.01 µM: 10 nM test drug, read-out: BINDING INHIBITION RATE (%) 5HT2A 10 nM
T1 construct: expressed in transfected cells; host or cells: CHO cells (membrane preparation)
Procedure: (2) Serotonin 5-HT2A Receptor Binding Assay
5-HT2A receptor binding assay was performed in reference to a method described by Hirose et al. (Japan. J. Pharmacol., 53, 321-329, 1990). After a reaction in a total volume of 200 μL of 50 mM Tris-HCl (pH=7.6) buffer solution containing 50 μL of [^3H]-ketanserin (final concentration 1 nM), 1 μL of test drug in DMSO, and 149 μL of human 5-HT2A receptor-expressing CHO cell membrane sample, human 5-HT2A receptor binding activity of [^3H]-ketanserin was measured. The reaction solution let stand for 15 minutes at 37° C., and then it was quickly added on a glass fiber filter plate (Multiscreen FB, Millipore inc.) coated with 0.05% Brij 35 and filtered under reduced pressure. The glass fiber filter was washed with 200 μL of ice-cooled 50 mM Tris-HCl (pH=7.6) twice, repeatedly filtered under reduced pressure, and then transferred to a vial containing 4 mL of Ecoscint A (National Diagnostics inc.). The residual radioactivity on the glass fiber filter was measured by a liquid scintillation counter. Nonspecific binding was measured in the presence of 10 μM of MDL-100907, and [^3H]-ketanserin binding inhibition rate in the presence of 1 nM or 10 nM of test drug was determined.

[3] = molecular target: T2, human 5-HT6 receptor (Homo sapiens, UniProt P50406); experiment: Serotonin 5-HT6 receptor binding assay ([3H]-clozapine); conditions: 100 nM test drug; [3H]-clozapine 2 nM; human 5-HT6 receptor-expressing CHO cell membrane; read-out: BINDING INHIBITION RATE (%) 5HT6 100 nM
T2 construct: expressed in transfected cells; host or cells: CHO cells (membrane preparation)
Procedure: (3) Serotonin 5-HT6 Receptor Binding Assay
After a reaction in a total volume of 200 μL of 50 mM Tris-HCl (pH=7.6), 4 mM CaCl2, and 0.5 mM EDTA buffer solution containing 50 μL of [^3H]-clozapine (final concentration 2 nM), 1 μL of test drug in DMSO, and 149 μL of human 5-HT6 receptor-expressing CHO cell membrane sample, human 5-HT6 receptor binding activity of [^3H]-clozapine was measured. The reaction solution let stand for 40 minutes at room temperature, and then it was quickly added on a glass fiber filter plate (Multiscreen FB, Millipore inc.) coated with 0.3% polyethyleneimine (PEI) and filtered under reduced pressure. The glass fiber filter was washed with 200 μL of ice-cooled 50 mM Tris-HCl (pH=7.6) twice, repeatedly filtered under reduced pressure, and then transferred to a vial containing 4 mL of Ecoscint A (National Diagnostics inc.). The residual radioactivity on the glass fiber filter was measured by a liquid scintillation counter. Nonspecific binding was measured in the presence of 10 μM of SB-258585, and [^3H]-clozapine binding inhibition rate in the presence of 100 nM of test drug was determined.

[4] = molecular target: T3, human α1D receptor (Homo sapiens, UniProt P25100); experiment: Adrenaline α1D receptor binding assay ([3H]-prazosin); conditions: 100 nM test drug; [3H]-prazosin 0.6 nM; human α1D receptor-expressing CHO cell membrane; read-out: BINDING INHIBITION RATE (%) α1D 100 nM
T3 construct: expressed in transfected cells; host or cells: CHO cells (membrane preparation)
T3 sequence (P25100 1-572): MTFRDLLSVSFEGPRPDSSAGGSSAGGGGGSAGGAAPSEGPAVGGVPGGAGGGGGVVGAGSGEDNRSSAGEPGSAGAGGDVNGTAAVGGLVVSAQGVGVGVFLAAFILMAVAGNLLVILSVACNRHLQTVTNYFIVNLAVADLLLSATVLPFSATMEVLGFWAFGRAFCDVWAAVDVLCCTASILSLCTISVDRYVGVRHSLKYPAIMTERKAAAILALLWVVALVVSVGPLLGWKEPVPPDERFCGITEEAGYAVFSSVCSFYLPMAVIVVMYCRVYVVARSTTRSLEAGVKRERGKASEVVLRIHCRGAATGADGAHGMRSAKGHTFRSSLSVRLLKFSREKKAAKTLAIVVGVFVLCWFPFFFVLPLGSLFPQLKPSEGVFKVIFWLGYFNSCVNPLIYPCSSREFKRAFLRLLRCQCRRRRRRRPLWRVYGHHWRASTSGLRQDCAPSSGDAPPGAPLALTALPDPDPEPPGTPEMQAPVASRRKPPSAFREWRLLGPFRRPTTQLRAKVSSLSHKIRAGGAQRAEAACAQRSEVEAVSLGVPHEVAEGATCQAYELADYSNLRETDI
Procedure: (4) Adrenaline α1D Receptor Binding Assay
After a reaction in a total volume of 200 μL of 50 mM Tris-HCl (pH=7.6) buffer solution containing 50 μL of [^3H]-prazosin (final concentration 0.6 nM), 1 μL of test drug in DMSO, and 149 μL of human α1D receptor-expressing CHO cell membrane sample, human α1D receptor binding activity of [^3H]-prazosin was measured. The reaction solution let stand for 30 minutes at room temperature, and then it was quickly added on a glass fiber filter plate (Multiscreen FB, Millipore inc.) coated with 0.3% polyethyleneimine (PEI) and filtered under reduced pressure. The glass fiber filter was washed with 200 μL of ice-cooled 50 mM Tris-HCl (pH=7.6) twice, repeatedly filtered under reduced pressure, and then transferred to a vial containing 4 mL of Ecoscint A (National Diagnostics inc.). The residual radioactivity on the glass fiber filter was measured by a liquid scintillation counter. Nonspecific binding was measured in the presence of 1 μM of prazosin, and [^3H]-prazosin binding inhibition rate in the presence of 100 nM of test drug was determined.

T2 sequence (P50406 whole entry): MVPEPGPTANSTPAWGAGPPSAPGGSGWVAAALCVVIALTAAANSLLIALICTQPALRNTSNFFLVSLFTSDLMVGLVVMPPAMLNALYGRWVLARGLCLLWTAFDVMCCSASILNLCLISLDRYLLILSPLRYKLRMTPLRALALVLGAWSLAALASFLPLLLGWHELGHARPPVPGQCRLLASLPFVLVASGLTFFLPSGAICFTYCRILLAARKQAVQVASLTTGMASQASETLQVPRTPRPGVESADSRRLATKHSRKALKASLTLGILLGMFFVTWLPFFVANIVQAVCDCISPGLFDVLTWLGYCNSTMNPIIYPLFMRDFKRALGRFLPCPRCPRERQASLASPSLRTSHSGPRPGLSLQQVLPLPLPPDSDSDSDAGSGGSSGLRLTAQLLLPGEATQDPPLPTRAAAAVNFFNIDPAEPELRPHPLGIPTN
T1 sequence (P28223 whole entry): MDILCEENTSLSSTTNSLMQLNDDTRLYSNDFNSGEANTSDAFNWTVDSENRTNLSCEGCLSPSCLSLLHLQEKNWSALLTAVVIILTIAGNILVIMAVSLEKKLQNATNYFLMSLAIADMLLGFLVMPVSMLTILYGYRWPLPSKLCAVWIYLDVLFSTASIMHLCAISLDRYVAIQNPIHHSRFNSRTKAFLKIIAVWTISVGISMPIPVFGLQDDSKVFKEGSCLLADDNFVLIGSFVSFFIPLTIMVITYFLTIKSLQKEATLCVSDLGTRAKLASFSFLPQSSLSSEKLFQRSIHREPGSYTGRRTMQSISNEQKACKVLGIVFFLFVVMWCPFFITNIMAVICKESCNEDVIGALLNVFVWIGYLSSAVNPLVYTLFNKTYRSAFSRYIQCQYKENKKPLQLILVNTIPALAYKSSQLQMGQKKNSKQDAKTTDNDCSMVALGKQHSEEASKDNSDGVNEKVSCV
Chain of human D2L receptor (P14416 whole entry): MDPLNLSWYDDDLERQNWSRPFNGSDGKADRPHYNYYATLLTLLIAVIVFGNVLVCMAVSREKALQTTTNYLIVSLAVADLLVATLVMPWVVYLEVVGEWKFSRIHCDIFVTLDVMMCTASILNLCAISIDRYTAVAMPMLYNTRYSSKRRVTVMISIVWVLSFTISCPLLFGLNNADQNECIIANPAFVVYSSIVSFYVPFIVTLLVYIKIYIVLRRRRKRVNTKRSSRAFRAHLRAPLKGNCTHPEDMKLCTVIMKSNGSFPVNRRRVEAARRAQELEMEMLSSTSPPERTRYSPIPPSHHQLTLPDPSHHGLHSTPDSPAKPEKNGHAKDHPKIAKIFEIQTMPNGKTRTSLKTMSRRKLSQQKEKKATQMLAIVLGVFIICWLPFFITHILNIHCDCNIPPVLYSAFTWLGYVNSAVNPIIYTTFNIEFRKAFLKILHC

For `Cc1ccc2cc(C(=O)N3CCC[C@H]3CCN3CCN(c4n[nH]c5ccccc45)CC3)[nH]c2c1` [Example 2, (S)-(2-(2-(4-(1H-Indazol-3-yl)piperazin-1-yl)ethyl)pyrrolidin-1-yl)(6-methyl-1H-indol-2-yl)methanone], the inhibition at 0.01 µM [1] was 73%, the inhibition at 0.001 µM [2] was 65% and the inhibition at 0.1 µM [3] was 95%. For the same compound, the inhibition at 0.1 µM [4] was 63%.
For `Cc1ccc2cc(C(=O)N3CCC[C@H]3CCN3CCC(N4CCc5cc(F)ccc54)CC3)[nH]c2c1` [Example 3], the inhibition at 0.01 µM [1] was 80%, the inhibition at 0.001 µM [2] was 65% and the inhibition at 0.1 µM [3] was 94%. The inhibition at 0.1 µM [4] was 74%.
`O=C(/C=C/c1ccc2c(c1)OCO2)N1CCC[C@@H](CCN2CCN(c3nsc4ccccc34)CC2)C1` [Example 4, (S,E)-3-(Benzo[d][1,3]-5-dioxolyl)-1-(3-(2-(4-(benzo[d]isothiazo-3-yl)piperazin-1-yl)ethyl)piperidin-1-yl)-2-propen-1-one] was tested, and the inhibition at 0.01 µM [1] was 73%, the inhibition at 0.01 µM [2] was 96% and the inhibition at 0.1 µM [3] was 65%. For the same compound, the inhibition at 0.1 µM [4] was 30%.
With `Cc1ccc2cc(C(=O)N3CCC[C@H]3CCN3CCC(c4c[nH]c5cc(F)ccc45)CC3)[nH]c2c1` [Example 5] the inhibition at 0.01 µM [1] was 83%, the inhibition at 0.001 µM [2] was 72% and the inhibition at 0.1 µM [3] was 98%. It also gave an inhibition at 0.1 µM [4] of 70%.
`Cc1ccc2cc(C(=O)N3CCC[C@H]3CCN3CCC(c4noc5cc(F)ccc45)CC3)[nH]c2c1` [Example 6, (S)-(2-(2-(4-(6-Fluorobenzo[d]isoxazol-3-yl)piperidin-1-yl)ethyl)pyrrolidin-1-yl)(6-methyl-1H-indol-2-yl)methanone] was tested, and the inhibition at 0.01 µM [1] was 91%, the inhibition at 0.001 µM [2] was 61% and the inhibition at 0.1 µM [3] was 94%. It also gave an inhibition at 0.1 µM [4] of 71%.
`O=C(c1cc2cc(F)ccc2[nH]1)N1CCOC[C@H]1CCN1CCC(c2c[nH]c3ccccc23)CC1` [Example 7, (R)-(3-(2-(4-(1H-Indol-3-yl)piperidin-1-yl)ethyl)morpholino)(5-fluoro-1H-indol-2-yl)methanone] showed an inhibition at 0.01 µM [1] of 85%, an inhibition at 0.01 µM [2] of 100% and an inhibition at 0.1 µM [3] of 97%. It also gave an inhibition at 0.1 µM [4] of 86%.
`Cc1ccc2[nH]c(C(=O)N3CCC[C@H]3CCN3CCC(c4coc5ccccc45)CC3)cc2c1` [Example 8, (S)-(2-(2-(4-(Benzofuran-3-yl)piperidin-1-yl)ethyl)pyrrolidin-1-yl)(5-methyl-1H-indol-2-yl)methanone] showed an inhibition at 0.01 µM [1] of 76%, an inhibition at 0.01 µM [2] of 92% and an inhibition at 0.1 µM [3] of 93%. It also gave an inhibition at 0.1 µM [4] of 62%.
Compound `O=C(/C=C/c1ccc2c(c1)OCO2)N1CCCC[C@H]1CCN1CCN(c2cccc3ccccc23)CC1` [Example 9] has an inhibition at 0.01 µM [1] of 32%, an inhibition at 0.01 µM [2] of 94% and an inhibition at 0.1 µM [3] of 61%. It also gave an inhibition at 0.1 µM [4] of 5%.
In the case of `Cc1ccc2cc(C(=O)N3CCC[C@H]3CCN3CCC(n4ccc5ccc(F)cc54)CC3)[nH]c2c1` [Example 10], the inhibition at 0.01 µM [1] is reported as 52%, the inhibition at 0.001 µM [2] is reported as 37% and the inhibition at 0.1 µM [3] is reported as 74%. For the same compound, the inhibition at 0.1 µM [4] was 12%.
Compound `Cc1ccc2cc(C(=O)N3CCC[C@H]3CCN3CCN(c4nccc5ccccc45)CC3)[nH]c2c1` [Example 11] has an inhibition at 0.01 µM [1] of 69%, an inhibition at 0.001 µM [2] of 64% and an inhibition at 0.1 µM [3] of 86%. It also gave an inhibition at 0.1 µM [4] of 5%.
Compound `Cc1ccc2cc(C(=O)N3CCC[C@H]3CCN3CCC(N4CCCc5ccccc54)CC3)[nH]c2c1` [Example 12] has an inhibition at 0.01 µM [1] of 59%, an inhibition at 0.001 µM [2] of 28% and an inhibition at 0.1 µM [3] of 84%. For the same compound, the inhibition at 0.1 µM [4] was 43%.
With `Cc1ccc2cc(C(=O)N3CCC[C@H]3CCN3CCN(c4nsc5cc(F)ccc45)CC3)[nH]c2c1` [Example 13] the inhibition at 0.01 µM [1] was 72%, the inhibition at 0.001 µM [2] was 34% and the inhibition at 0.1 µM [3] was 93%. The inhibition at 0.1 µM [4] was 60%.
`COc1ccc2cc(C(=O)N3CCOC[C@H]3CCN3CCC(c4noc5cc(F)ccc45)CC3)[nH]c2c1` [Example 15] gave an inhibition at 0.01 µM [1] of 84%, an inhibition at 0.001 µM [2] of 76% and an inhibition at 0.01 µM [2] of 94%. For the same compound, the inhibition at 0.1 µM [3] was 79% and the inhibition at 0.1 µM [4] was 74%.
Work on `O=C(/C=C/c1ccc2c(c1)OCO2)N1CCC[C@@H](CN2CCC(c3noc4cc(F)ccc34)CC2)C1` [Example 16] yielded an inhibition at 0.01 µM [1] of 97%, an inhibition at 0.01 µM [2] of 93% and an inhibition at 0.1 µM [3] of 87%. It also gave an inhibition at 0.1 µM [4] of 91%.
`O=C(/C=C/c1ccc2c(c1)OCO2)N1CCC[C@H](CN2CCC(c3noc4cc(F)ccc34)CC2)C1` [Example 17] was tested, and the inhibition at 0.01 µM [1] was 84%, the inhibition at 0.01 µM [2] was 99% and the inhibition at 0.1 µM [3] was 93%. It also gave an inhibition at 0.1 µM [4] of 92%.
`O=C(/C=C/c1ccc2c(c1)OCO2)N1CC[C@H]1CCN1CCC(c2noc3cc(F)ccc23)CC1` [Example 18] showed an inhibition at 0.01 µM [1] of 54%, an inhibition at 0.01 µM [2] of 100% and an inhibition at 0.1 µM [3] of 74%. The inhibition at 0.1 µM [4] was 102%.
`Cc1ccc2cc(C(=O)N3CCC[C@H]3CCN3CCN(c4noc5cc(F)ccc45)CC3)[nH]c2c1` [Example 21] showed an inhibition at 0.01 µM [1] of 73%, an inhibition at 0.001 µM [2] of 41% and an inhibition at 0.1 µM [3] of 94%. It also gave an inhibition at 0.1 µM [4] of 55%.
In the case of `Cc1ccc2cc(C(=O)N3CCCC[C@H]3CCN3CCN(c4n[nH]c5ccccc45)CC3)[nH]c2c1` [Example 23], the inhibition at 0.01 µM [1] is reported as 62%, the inhibition at 0.001 µM [2] is reported as 34% and the inhibition at 0.1 µM [3] is reported as 75%. It also gave an inhibition at 0.1 µM [4] of 34%.
